Measured values: patent publication US8592174B2, “Peptidase substrates” (bioMérieux, S.A., priority 2009, dated 2013)

Tests used:
Assay in all cases: Peptidase detection on Columbia medium (Example 2)
Type in all cases: cell-based
Settings in all cases: 40 mg in 400 ml Columbia; 24 h 37° C.
[1] = test system: Candida albicans ATCC 90 028; design: key to Growth: NG: No growth; 0.5: weak growth; 1: moderate growth; 2: good growth; key to Fluo. / Color / Color post-acid.: —: no color
[2] = test system: Enterococcus faecalis NCTC 775; design: key to Growth: NG: No growth; 0.5: weak growth; 1: moderate growth; 2: good growth; key to Fluo. / Color / Color post-acid.: —: no color
Protocol: (§1) The 6 media were distributed into Petri dishes 90 mm in diameter, in a proportion of 20 ml per dish.
(§2) Seventeen strains of microorganisms stemming from collections and belonging to various species of bacteria and yeasts are inoculated in spots of approximately 10 000 colony-forming units.
(§3) The media are incubated for 24 hours at 37° C., and then the colonies formed are examined visually, with or without the addition of acid and under a UV lamp at 365 nm.

[3] = test system: Staphylococcus aureus NCTC 11 939; design: key to Growth: NG: No growth; 0.5: weak growth; 1: moderate growth; 2: good growth; key to Fluo. / Color / Color post-acid.: —: no color
Protocol: as §1, §2, §3

[4] = test system: Providencia rettgeri NCTC 7 475; design: key to Growth: NG: No growth; 0.5: weak growth; 1: moderate growth; 2: good growth
Protocol: as §1, §2, §3

[5] = test system: Bacillus subtilis NCTC 9 372; design: key to Growth: NG: No growth; 0.5: weak growth; 1: moderate growth; 2: good growth; key to Fluo. / Color / Color post-acid.: —: no color
[6] = test system: Serratia marcescens NCTC 10 211; design: key to Growth: NG: No growth; 0.5: weak growth; 1: moderate growth; 2: good growth
Protocol: as §1, §2, §3

[7] = test system: Streptococcus pyogenes NCTC 8 306; design: key to Growth: NG: No growth; 0.5: weak growth; 1: moderate growth; 2: good growth; key to Fluo. / Color / Color post-acid.: —: no color
[8] = test system: Staphylococcus epidermidis NCTC 11 047; design: key to Growth: NG: No growth; 0.5: weak growth; 1: moderate growth; 2: good growth; key to Fluo. / Color / Color post-acid.: —: no color
[9] = test system: Enterococcus faecium NCTC 7 171; design: key to Growth: NG: No growth; 0.5: weak growth; 1: moderate growth; 2: good growth; key to Fluo. / Color / Color post-acid.: —: no color
Protocol: as §1, §2, §3

[10] = test system: Pseudomonas aeruginosa NCTC 10 662; design: key to Growth: NG: No growth; 0.5: weak growth; 1: moderate growth; 2: good growth; key to Color: —: no color
Protocol: as §1, §2, §3

[11] = test system: Staphylococcus aureus NCTC 6 571; design: key to Growth: NG: No growth; 0.5: weak growth; 1: moderate growth; 2: good growth; key to Fluo. / Color / Color post-acid.: —: no color
Protocol: as §1, §2, §3

[12] = test system: Candida glabrata NCPF 3 943; design: key to Growth: NG: No growth; 0.5: weak growth; 1: moderate growth; 2: good growth; key to Fluo. / Color / Color post-acid.: —: no color
[13] = test system: Salmonella typhimurium NCTC 74; design: key to Growth: NG: No growth; 0.5: weak growth; 1: moderate growth; 2: good growth
Protocol: as §1, §2, §3

[14] = test system: Listeria monocytogenes NCTC 11 994; design: key to Growth: NG: No growth; 0.5: weak growth; 1: moderate growth; 2: good growth; key to Fluo. / Color / Color post-acid.: —: no color
Protocol: as §1, §2, §3

[15] = test system: Yersinia enterocolitica NCTC 11 176; design: key to Growth: NG: No growth; 0.5: weak growth; 1: moderate growth; 2: good growth; key to Color: —: no color
Protocol: as §1, §2, §3

[16] = test system: Escherichia coli NCTC 10 418; design: key to Growth: NG: No growth; 0.5: weak growth; 1: moderate growth; 2: good growth
Protocol: as §1, §2, §3

[17] = test system: Enterobacter cloacae NCTC 11 936; design: key to Growth: NG: No growth; 0.5: weak growth; 1: moderate growth; 2: good growth
Protocol: as §1, §2, §3

In the case of C[n+]1ccc(C=Cc2ccc(NC(=O)[C@@H](N)Cc3ccc(O)cc3)cc2)c2ccccc21.Cl.[Cl-] [Tyr-ASQM^+, L-tyrosyl-4-(4′-amidostyryl)-N-methylquinolinium dihydrochloride], the Color [1] is reported as “—”, the Growth [1] is reported as 0.5 and the Growth [2] is reported as 1. The Color [3] was “—”, the Growth [3] was “NG” and the Growth [4] was 2. For the same compound, the Color [5] was “—”, the Growth [5] was 1 and the Color [6] was “Orange”. The Growth [6] was 2, the Color [7] was “—” and the Growth [7] was “NG”. For the same compound, the Color [8] was “—”, the Growth [8] was 0.5 and the Color [9] was “—”. The Growth [9] was 1, the Color [10] was “—” and the Growth [10] was 2. For the same compound, the Color [11] was “—”, the Growth [11] was “NG” and the Color [12] was “—”. For the same compound, the Growth [12] was “NG”, the Growth [13] was 2 and the Color [14] was “—”. For the same compound, the Growth [14] was 1, the Growth [15] was 2 and the Color [16] was “Orange”. For the same compound, the Growth [16] was 2, the Color [17] was “Orange” and the Growth [17] was 2.
For C[n+]1ccc(C=Cc2ccc(NC(=O)CC[C@H](N)C(=O)O)cc2)c2ccccc21.Cl.[Cl-] [λ-Glu-ASQM^+, L-gamma-glutamyl-4-(4′-amidostyryl)-N-methylquinolinium (dichloride)], the Color [1] was “—”, the Growth [1] was 1 and the Color [2] was “—”. For the same compound, the Growth [2] was 1, the Color [3] was “—” and the Growth [3] was 1. The Color [4] was “Orange”, the Growth [4] was 2 and the Color [5] was “—”. For the same compound, the Growth [5] was 1, the Color [6] was “Orange” and the Growth [6] was 2. The Color [7] was “—”, the Growth [7] was 1 and the Color [8] was “—”. For the same compound, the Growth [8] was 1, the Color [9] was “—” and the Growth [9] was 1. For the same compound, the Color [10] was “Orange”, the Growth [10] was 2 and the Color [11] was “—”. The Growth [11] was 1, the Color [12] was “—” and the Growth [12] was 1. The Color [13] was “Orange”, the Growth [13] was 2 and the Color [14] was “—”. The Growth [14] was 1, the Color [15] was “—” and the Growth [15] was 2. The Color [16] was “Orange”, the Growth [16] was 2 and the Color [17] was “Orange”. For the same compound, the Growth [17] was 2.
